Assay results published in patent US20240261271A1, “APPLICATION OF HYDRONIDONE IN PREPARATION OF DRUG FOR TREATING OR PREVENTING CHRONIC HEPATITIS B WITH LIVER FIBROSIS” (priority 2021, published 2024).
Several values for one entry are separate records, joined by “and”; a condition that tells them apart may be missing. Equal entries are not always repeated.

Test system: chronic hepatitis B with hepatic fibrosis
Assay: Phase II clinical study: hepatic fibrosis Ishak score by liver biopsy, before and after 52 weeks of treatment on entecavir basic treatment
Format: in vivo, human
Conditions: for Rate difference (C-D) % and 95% CI, Ishak score decreased by ≥1: 180 mg group minus 270 mg group; for Hepatic fibrosis Ishak score, Mean (SD) / Hepatic fibrosis Ishak score, Median / Ishak score 0 point, n(%) / Ishak score 1 point, n(%) / Ishak score 2 points, n(%) / Ishak score 3 points, n(%) / Ishak score 4 points, n(%) / Ishak score 5 points, n(%) / Ishak score 6 points, n(%) / Progressive Ishak score (increases by ≥1 compared with the baseline) / Reversed Ishak score (decreases by ≥1 point compared with the baseline) / Stable Ishak score (unchanged compared with the baseline): 52 weeks of treatment
Description: This is a randomized, double-blind, placebo-controlled, multicenter, and dose-finding phase II clinical study with foundational treatment. In the clinical trial, three different dose test groups and a placebo control group were set on the basis of the entecavir capsule antiviral treatment, and the planned sample amount of each group was 60 cases, totaling 240 cases. The three dose test groups were 180 mg group, 270 mg group, and 360 mg group, respectively. […]

[1] = 180 mg group, FAS, 52 weeks of treatment vs baseline, all subjects
[2] = 180 mg group, FAS, all subjects
[3] = 180 mg group, FAS, baseline Ishak score ≥3
[4] = 180 mg group, FAS, screening period-follow-up 15 (52 weeks), baseline Ishak score ≥3
[5] = 180 mg group, PPS, 52 weeks of treatment vs baseline, all subjects
[6] = 180 mg group, PPS, all subjects
[7] = 180 mg group, PPS, baseline Ishak score ≥3
[8] = 180 mg group, PPS, screening period-follow-up 15 (52 weeks), baseline Ishak score ≥3
[9] = 270 mg group, FAS, 52 weeks of treatment vs baseline, all subjects
[10] = 270 mg group, FAS, all subjects
[11] = 270 mg group, FAS, baseline Ishak score ≥3
[12] = 270 mg group, FAS, screening period-follow-up 15 (52 weeks), baseline Ishak score ≥3
[13] = 270 mg group, PPS, 52 weeks of treatment vs baseline, all subjects
[14] = 270 mg group, PPS, all subjects
[15] = 270 mg group, PPS, baseline Ishak score ≥3

SMILES: Cc1ccc(=O)n(-c2ccc(O)cc2)c1 [hydronidone]
- Rate difference (C-D) % and 95% CI, Ishak score decreased by ≥1 (FAS, 52 weeks, all subjects): −15.62(−35.03, 5.65) %
- Rate difference (C-D) % and 95% CI, Ishak score decreased by ≥1 (FAS, 52 weeks, baseline Ishak score ≥3): −10.12(−34.40, 15.62) %
- Rate difference (C-D) % and 95% CI, Ishak score decreased by ≥1 (PPS, 52 weeks, all subjects): −18.49(−38.82, 4.38) %
- Rate difference (C-D) % and 95% CI, Ishak score decreased by ≥1 (PPS, 52 weeks, baseline Ishak score ≥3): −12.91(−37.46, 13.45) %
- Ishak score decreased by <1, n(%) [1]: 25(59.52) n(%)
- Ishak score decreased by ≥1, n(%) [1]: 17 (40.48%) n(%) and 17(40.48) n(%)
- Hepatic fibrosis Ishak score, Mean (SD) [2]: 2.71(1.88)
- Hepatic fibrosis Ishak score, Median [2]: 2.00
- Ishak score 0 point, n(%) [2]: 3(7.14) n(%)
- Ishak score 1 point, n(%) [2]: 12(28.57) n(%)
- Ishak score 2 points, n(%) [2]: 8(19.05) n(%)
- Ishak score 3 points, n(%) [2]: 4(9.52) n(%)
- Ishak score 4 points, n(%) [2]: 5(11.90) n(%)
- Ishak score 5 points, n(%) [2]: 6(14.29) n(%)
- Ishak score 6 points, n(%) [2]: 4(9.52) n(%)
- Progressive Ishak score (increases by ≥1 compared with the baseline) [2]: 7 (16.67%) n(%) and 7(16.67) n(%)
- Reversed Ishak score (decreases by ≥1 point compared with the baseline) [2]: 17(40.48) n(%)
- Stable Ishak score (unchanged compared with the baseline) [2]: 18 (42.86%) n(%) and 18(42.86) n(%)
- Ishak score 0 point, n(%) [3]: 1(4.17) n(%)
- Ishak score 1 point, n(%) [3]: 4(16.67) n(%)
- Ishak score 2 points, n(%) [3]: 1(4.17) n(%)
- Ishak score 3 points, n(%) [3]: 3(12.50) n(%)
- Ishak score 4 points, n(%) [3]: 5(20.83) n(%)
- Ishak score 5 points, n(%) [3]: 6(25.00) n(%)
- Ishak score 6 points, n(%) [3]: 4(16.67) n(%)
- Ishak score change, Baseline-52 weeks of treatment, Mean (SD) [2]: 0.43(1.25)
- Ishak score change, Baseline-52 weeks of treatment, Median [2]: 0.00
- Ishak score decreased by <1, n(%) [4]: 11(45.83) n(%)
- Ishak score decreased by ≥1, n(%) [4]: 13(54.17) n(%)
- Ishak score decreased by <1, n(%) [5]: 19(52.78) n(%)
- Ishak score decreased by ≥1, n(%) [5]: 17 (47.22%) n(%) and 17(47.22) n(%)
- Hepatic fibrosis Ishak score, Mean (SD) [6]: 2.67(1.88)
- Hepatic fibrosis Ishak score, Median [6]: 2.00
- Ishak score 0 point, n(%) [6]: 3(8.33) n(%)
- Ishak score 1 point, n(%) [6]: 11(30.56) n(%)
- Ishak score 2 points, n(%) [6]: 5(13.89) n(%)
- Ishak score 3 points, n(%) [6]: 4(11.11) n(%)
- Ishak score 4 points, n(%) [6]: 5(13.89) n(%)
- Ishak score 5 points, n(%) [6]: 5(13.89) n(%)
- Ishak score 6 points, n(%) [6]: 3(8.33) n(%)
- Progressive Ishak score (increases by ≥1 compared with the baseline) [6]: 7 (19.44%) n(%) and 7(19.44) n(%)
- Reversed Ishak score (decreases by ≥1 point compared with the baseline) [6]: 17(47.22) n(%)
- Stable Ishak score (unchanged compared with the baseline) [6]: 12 (33.33%) n(%) and 12(33.33) n(%)
- Ishak score 0 point, n(%) [7]: 1(4.55) n(%)
- Ishak score 1 point, n(%) [7]: 4(18.18) n(%)
- Ishak score 2 points, n(%) [7]: 1(4.55) n(%)
- Ishak score 3 points, n(%) [7]: 3(13.64) n(%)
- Ishak score 4 points, n(%) [7]: 5(22.73) n(%)
- Ishak score 5 points, n(%) [7]: 5(22.73) n(%)
- Ishak score 6 points, n(%) [7]: 3(13.64) n(%)
- Ishak score change, Baseline-52 weeks of treatment, Mean (SD) [6]: 0.50(1.34)
- Ishak score change, Baseline-52 weeks of treatment, Median [6]: 0.00
- Ishak score decreased by <1, n(%) [8]: 9(40.91) n(%)
- Ishak score decreased by ≥1, n(%) [8]: 13(59.09) n(%)
- Ishak score decreased by ≥1, n(%) (270 mg group + 360 mg group, FAS, 52 weeks, baseline Ishak score = 6 (cirrhosis)): 9(90.00) n(%)
- Ishak score decreased by ≥1, n(%) (270 mg group + 360 mg group, FAS, 52 weeks, baseline Ishak score ≥3 (significant fibrosis)): 35(61.40) n(%)
- Ishak score decreased by ≥1, n(%) (270 mg group + 360 mg group, FAS, 52 weeks, baseline Ishak score ≥4 (progressive fibrosis)): 22(64.71) n(%)
- Ishak score decreased by ≥1, n(%) (270 mg group + 360 mg group, FAS, 52 weeks, baseline Ishak score ≥5 (early cirrhosis)): 17(65.38) n(%)
- Ishak score decreased by ≥1, n(%) (270 mg group + 360 mg group, PPS, 52 weeks, baseline Ishak score = 6 (cirrhosis)): 9(90.00) n(%)
- Ishak score decreased by ≥1, n(%) (270 mg group + 360 mg group, PPS, 52 weeks, baseline Ishak score ≥3 (significant fibrosis)): 35(70.00) n(%)
- Ishak score decreased by ≥1, n(%) (270 mg group + 360 mg group, PPS, 52 weeks, baseline Ishak score ≥4 (progressive fibrosis)): 22(70.97) n(%)
- Ishak score decreased by ≥1, n(%) (270 mg group + 360 mg group, PPS, 52 weeks, baseline Ishak score ≥5 (early cirrhosis)): 17(70.83) n(%)
- Ishak score decreased by <1, n(%) [9]: 18(43.90) n(%)
- Ishak score decreased by ≥1, n(%) [9]: 23 (56.10%) n(%) and 23(56.10) n(%)
- Hepatic fibrosis Ishak score, Mean (SD) [10]: 2.64(1.74)
- Hepatic fibrosis Ishak score, Median [10]: 2.00
- Ishak score 0 point, n(%) [10]: 2(5.13) n(%)
- Ishak score 1 point, n(%) [10]: 12(30.77) n(%)
- Ishak score 2 points, n(%) [10]: 7(17.95) n(%)
- Ishak score 3 points, n(%) [10]: 5(12.82) n(%)
- Ishak score 4 points, n(%) [10]: 5(12.82) n(%)
- Ishak score 5 points, n(%) [10]: 6(15.38) n(%)
- Ishak score 6 points, n(%) [10]: 2(5.13) n(%)
- Progressive Ishak score (increases by ≥1 compared with the baseline) [10]: 4 (9.76%) n(%) and 4(9.76) n(%)
- Reversed Ishak score (decreases by ≥1 point compared with the baseline) [10]: 23(56.10) n(%)
- Stable Ishak score (unchanged compared with the baseline) [10]: 14 (34.15%) n(%) and 14(34.15) n(%)
- Ishak score 0 point, n(%) [11]: 2(7.14) n(%)
- Ishak score 1 point, n(%) [11]: 4(14.29) n(%)
- Ishak score 2 points, n(%) [11]: 4(14.29) n(%)
- Ishak score 3 points, n(%) [11]: 5(17.86) n(%)
- Ishak score 4 points, n(%) [11]: 5(17.86) n(%)
- Ishak score 5 points, n(%) [11]: 6(21.43) n(%)
- Ishak score 6 points, n(%) [11]: 2(7.14) n(%)
- Ishak score change, Baseline-52 weeks of treatment, Mean (SD) [10]: 0.78(1.11)
- Ishak score change, Baseline-52 weeks of treatment, Median [10]: 1.00
- Ishak score decreased by <1, n(%) [12]: 10(35.71) n(%)
- Ishak score decreased by ≥1, n(%) [12]: 18(64.29) n(%)
- Ishak score decreased by <1, n(%) [13]: 12(34.29) n(%)
- Ishak score decreased by ≥1, n(%) [13]: 23 (65.71%) n(%) and 23(65.71) n(%)
- Hepatic fibrosis Ishak score, Mean (SD) [14]: 2.60(1.77)
- Hepatic fibrosis Ishak score, Median [14]: 2.00
- Ishak score 0 point, n(%) [14]: 2(5.71) n(%)
- Ishak score 1 point, n(%) [14]: 11(31.43) n(%)
- Ishak score 2 points, n(%) [14]: 7(20.00) n(%)
- Ishak score 3 points, n(%) [14]: 3(8.57) n(%)
- Ishak score 4 points, n(%) [14]: 5(14.29) n(%)
- Ishak score 5 points, n(%) [14]: 5(14.29) n(%)
- Ishak score 6 points, n(%) [14]: 2(5.71) n(%)
- Progressive Ishak score (increases by ≥1 compared with the baseline) [14]: 4 (11.43%) n(%) and 4(11.43) n(%)
- Reversed Ishak score (decreases by ≥1 point compared with the baseline) [14]: 23(65.71) n(%)
- Stable Ishak score (unchanged compared with the baseline) [14]: 8 (22.86%) n(%) and 8(22.86) n(%)
- Ishak score 0 point, n(%) [15]: 2(8.00) n(%)
- Ishak score 1 point, n(%) [15]: 4(16.00) n(%)
- Ishak score 2 points, n(%) [15]: 4(16.00) n(%)
- Ishak score 3 points, n(%) [15]: 3(12.00) n(%)
